Results reported in US10260079B2, “Method for producing ergothioneine by using soybean cake powder as nitrogen source in a seed medium” (TIANJIN INSTITUTE OF INDUSTRIAL BIOTECHNOLOGY, CHINESE …, priority 2014, dated 2019).
Values joined by “and” are separate entries in the source; they are usually repeats but may differ in a detail not shown here. Equal values may be shown once. Read-outs that look alike come from different tables or passages of the source.

Legend:
[1] = system: Pleurotus ostreatus mycelia CGMCC No. 6232; assay: Shake-flask fermentation, content of extracellular ergothioneine in the filtrate by HPLC
Procedure: Seed medium: corn flour 30 g/L, soybean meal powder 15 g/L, α-amylase 80 U/L, KH2PO4 3 g/L, MgSO4.7H2O 1.5 g/L, and a balance of water. The seed medium was sterilized at 121° C. for 20 min, and the liquid volume in a 500 mL triangular flask was 150 mL. […] A lawn of the strain CGMCC No. 6232 was picked from the PDA slant and inoculated into the seed medium, cultured on a shaker at 150 rpm at 25° C. for 4 days, to obtain a seed liquor. […] The obtained permeate was the test sample for detection of the content of extracellular ergothioneine in the filtrate. […] The solutions were filtered with 0.22 μm millipore filter to obtain the reference solutions. Qualitative and quantitative detection: L-ergothioneine reference solutions and the test samples were detected by HPLC under the same chromatographic conditions. The chromatograms of the test samples were compared with those of the L-ergothioneine reference solutions, and the chromatographic peak of L-ergothioneine in the test sample was identified based on the retention time. A standard curve was plotted with the concentrations of L-ergothioneine reference solutions and the corresponding peak areas. In the case that the sample load of the reference solution was identical with that of the test sample, an external standard method was used for quantification so as to calculate the content of ergothioneine in the test sample. The concentration of ergothioneine in the test sample was the concentration of ergothioneine in the fermentation broth. Detection conditions: the chromatographic column was Agilent Eclipse XDB-C18 (4.6×250 mm, 5 μm), with two chromatographic columns in series; the mobile phase was 1% methanol solution, the pH of which was adjusted to 5.0 using acetic acid-sodium acetate buffer; the detection wavelength was 257 nm; the flow rate was 0.7 mL/min; the column temperature was 25° C.; and the sample load was 5 μL. […] Pleurotus ostreatus mycelia CGMCC No. 6232 were subjected to fermentation and culture.

[2] = system: Pleurotus ostreatus mycelia CGMCC No. 6232; assay: Shake-flask fermentation, total content of ergothioneine in the fermentation broth by HPLC; type: cell-based
[3] = Pleurotus ostreatus, CGMCC6232, 360 h, read-out: content of ergothioneine improved compared with control group

## CCCCCCCC/C=C\CCCCCCCC(=O)OCCOCC(OCCO)C1OCC(OCCO)C1OCCO (stereo not shown) [tween 80]
[1]; tween 80 10 g/L (highest)
  content of extracellular ergothioneine in the filtrate: 18.72 mg/L
[2]; Pleurotus ostreatus, CGMCC6232, 360 h, tween 80 10 g/L, read-out: content of ergothioneine improved compared with control group
  activation at 10000 µg/mL: 78.5%
[2]; tween 80 0.5 g/L added in fermentation medium
  Content of ergothioneine in fermentation broth: 130.2 ± 1.56 mg/L
[2]; tween 80 2 g/L added in fermentation medium
  Content of ergothioneine in fermentation broth: 155.9 ± 2.7 mg/L
[2]; tween 80 5 g/L added in fermentation medium
  Content of ergothioneine in fermentation broth: 181.8 ± 3.95 mg/L
[2]; tween 80 10 g/L added in fermentation medium
  Content of ergothioneine in fermentation broth: 217 mg/L and 217 ± 4.37 mg/L
[2]; tween 80 20 g/L added in fermentation medium
  Content of ergothioneine in fermentation broth: 170.9 ± 4.43 mg/L
[2]; tween 80 40 g/L added in fermentation medium
  Content of ergothioneine in fermentation broth: 130.9 ± 1.61 mg/L

## CC(=O)N1CCN(c2ccc(OCC3COC(Cn4ccnc4)(c4ccc(Cl)cc4Cl)O3)cc2)CC1 (stereo not shown) [Ketoconazole, reference compound]
[1]; Ketoconazole 50 mg/L (highest)
  content of extracellular ergothioneine in the filtrate: 5.77 mg/L
[2]; Ketoconazole 0.5 mg/L added in fermentation medium
  Content of ergothioneine in fermentation broth: 127.6 ± 1.06 mg/L
[2]; Ketoconazole 1 mg/L added in fermentation medium
  Content of ergothioneine in fermentation broth: 130.7 ± 2.22 mg/L
[2]; Ketoconazole 5 mg/L added in fermentation medium
  Content of ergothioneine in fermentation broth: 134.1 mg/L and 134.1 ± 2.99 mg/L
[2]; Ketoconazole 10 mg/L added in fermentation medium
  Content of ergothioneine in fermentation broth: 132.5 ± 1.87 mg/L
[2]; Ketoconazole 50 mg/L added in fermentation medium
  Content of ergothioneine in fermentation broth: 128.9 ± 1.18 mg/L
[2]; Pleurotus ostreatus, CGMCC6232, 360 h, Ketoconazole 5 mg/L, read-out: content of ergothioneine improved compared with control group
  activation at 5 µg/mL: 9.6%

## tween 60
[1]; tween 60 5 g/L (highest)
  content of extracellular ergothioneine in the filtrate: 16.24 mg/L
[2]; tween 60 2 g/L added in fermentation medium
  Content of ergothioneine in fermentation broth: 128.8 ± 1.51 mg/L
[2]; tween 60 5 g/L added in fermentation medium
  Content of ergothioneine in fermentation broth: 173.6 ± 2.98 mg/L
[2]; tween 60 10 g/L
  content of ergothioneine improved compared with control group: 74.9%
[2]; tween 60 10 g/L added in fermentation medium
  Content of ergothioneine in fermentation broth: 212.7 mg/L and 212.7 ± 4.52 mg/L
[2]; tween 60 20 g/L added in fermentation medium
  Content of ergothioneine in fermentation broth: 184.4 ± 3.78 mg/L
[2]; tween 60 40 g/L added in fermentation medium
  Content of ergothioneine in fermentation broth: 154.2 ± 2.63 mg/L
[2]; tween 60 50 g/L added in fermentation medium
  Content of ergothioneine in fermentation broth: 129.1 ± 2.1 mg/L

## C[S+](C)[O-] [dimethyl sulfoxide]
[1]; dimethyl sulfoxide 2% (V/V) (highest)
  content of extracellular ergothioneine in the filtrate: 10.18 mg/L

## Clc1ccc(COC(Cn2ccnc2)c2ccc(Cl)cc2Cl)c(Cl)c1 (stereo not shown) [Miconazole, reference compound]
[1]; Miconazole 50 mg/L (highest)
  content of extracellular ergothioneine in the filtrate: 9.14 mg/L
[2]; Miconazole 0.5 mg/L added in fermentation medium
  Content of ergothioneine in fermentation broth: 132.4 ± 2.96 mg/L
[2]; Miconazole 1 mg/L added in fermentation medium
  Content of ergothioneine in fermentation broth: 140.0 ± 3.28 mg/L
[2]; Miconazole 5 mg/L added in fermentation medium
  Content of ergothioneine in fermentation broth: 152.9 mg/L and 152.9 ± 4.22 mg/L
[2]; Miconazole 10 mg/L added in fermentation medium
  Content of ergothioneine in fermentation broth: 147.0 ± 3.09 mg/L
[2]; Miconazole 15 mg/L added in fermentation medium
  Content of ergothioneine in fermentation broth: 129.8 ± 2.11 mg/L
[2]; Pleurotus ostreatus, CGMCC6232, 360 h, Miconazole 5 mg/L, read-out: content of ergothioneine improved compared with control group
  activation at 5 µg/mL: 24.9%

## CC(C)O [isopropyl alcohol]
[1]; isopropyl alcohol 2% (V/V) (highest)
  content of extracellular ergothioneine in the filtrate: 10.04 mg/L

## O=C(O)CN(CCN(CC(=O)O)CC(=O)O)CC(=O)O [EDTA, ethylenediaminetetraacetic acid]
[1]; EDTA 0.5 g/L (highest)
  content of extracellular ergothioneine in the filtrate: 9.28 mg/L

## OC(Cn1cncn1)(Cn1cncn1)c1ccc(F)cc1F [Fluconazole, reference compound]
[1]; Fluconazole 50 mg/L (highest)
  content of extracellular ergothioneine in the filtrate: 7.67 mg/L
[2]; Fluconazole 2 mg/L added in fermentation medium
  Content of ergothioneine in fermentation broth: 131.6 ± 1.92 mg/L
[2]; Fluconazole 5 mg/L added in fermentation medium
  Content of ergothioneine in fermentation broth: 137.2 ± 2.51 mg/L
[2]; Fluconazole 20 mg/L added in fermentation medium
  Content of ergothioneine in fermentation broth: 141.3 ± 3.27 mg/L
[2]; Fluconazole 50 mg/L added in fermentation medium
  Content of ergothioneine in fermentation broth: 146.4 mg/L and 146.4 ± 3.41 mg/L
[2]; Fluconazole 80 mg/L added in fermentation medium
  Content of ergothioneine in fermentation broth: 132.7 ± 3.39 mg/L
[2]; Pleurotus ostreatus, CGMCC6232, 360 h, Fluconazole 50 mg/L, read-out: content of ergothioneine improved compared with control group
  activation at 50 µg/mL: 19.6%

## N[C@@H](CC(=O)O)C(=O)O [aspartic acid]
[2]; Pleurotus ostreatus, CGMCC6232, 360 h, aspartic acid 5 g/L, read-out: content of ergothioneine improved compared with control group
  activation at 5000 µg/mL: 14.1%
[2]; aspartic acid 0.05 g/L added in fermentation medium
  Content of ergothioneine in fermentation broth: 124.1 ± 3.07 mg/L
[2]; aspartic acid 0.5 g/L added in fermentation medium
  Content of ergothioneine in fermentation broth: 128 ± 2.51 mg/L
[2]; aspartic acid 1 g/L added in fermentation medium
  Content of ergothioneine in fermentation broth: 130.1 ± 4.28 mg/L
[2]; aspartic acid 5 g/L added in fermentation medium
  Content of ergothioneine in fermentation broth: 135.9 mg/L and 135.9 ± 3.64 mg/L
[2]; aspartic acid 7 g/L added in fermentation medium
  Content of ergothioneine in fermentation broth: 127.9 ± 2.59 mg/L
[2]; aspartic acid 9 g/L added in fermentation medium
  Content of ergothioneine in fermentation broth: 123.8 ± 2.88 mg/L

## OCC(O)CO [glycerol]
[2]; Pleurotus ostreatus, CGMCC6232, 360 h, glycerol 75 g/L vs 50 g/L, casein peptone 50 g/L, read-out: content of ergothioneine improved compared with control group
  activation at 75000 µg/mL: 8.5%
[2]; glycerol 65 g/L, casein peptone 50 g/L in fermentation medium (control glycerol 50 g/L)
  Content of ergothioneine in fermentation broth: 162.4 ± 2.67 mg/L
[2]; glycerol 75 g/L, casein peptone 50 g/L in fermentation medium (control glycerol 50 g/L)
  Content of ergothioneine in fermentation broth: 170.2 mg/L and 170.2 ± 3.49 mg/L
[2]; glycerol 85 g/L, casein peptone 50 g/L in fermentation medium (control glycerol 50 g/L)
  Content of ergothioneine in fermentation broth: 164.8 ± 3.41 mg/L
[2]; glycerol 95 g/L, casein peptone 50 g/L in fermentation medium (control glycerol 50 g/L)
  Content of ergothioneine in fermentation broth: 160.1 ± 1.15 mg/L

## NCCCC[C@H](N)C(=O)O [lysine]
[2]
  Content of ergothioneine in fermentation broth: 124.8 ± 0.72 mg/L and 125.6 ± 2.03 mg/L and 128.9 ± 2.12 mg/L and 133.7 ± 1.51 mg/L and 135.1 ± 0.66 mg/L and 126.3 ± 2.67 mg/L
[2]; [3]
  activation at 5000 µg/mL: 13.4%

## N=C(N)NCCC[C@H](N)C(=O)O [arginine]
[2]; [3]
  activation at 2000 µg/mL: 12.7%

## CC(C)C[C@H](N)C(=O)O [leucine]
[2]; Pleurotus ostreatus, CGMCC6232, 360 h, leucine 0.1 g/L, read-out: content of ergothioneine improved compared with control group
  activation at 100 µg/mL: 11.9%
[2]; leucine 0.02 g/L added in fermentation medium
  Content of ergothioneine in fermentation broth: 127 ± 1.23 mg/L
[2]; leucine 0.05 g/L added in fermentation medium
  Content of ergothioneine in fermentation broth: 129.4 ± 2.17 mg/L
[2]; leucine 0.1 g/L added in fermentation medium
  Content of ergothioneine in fermentation broth: 133.3 mg/L and 133.3 ± 2.5 mg/L
[2]; leucine 0.25 g/L added in fermentation medium
  Content of ergothioneine in fermentation broth: 130.8 ± 2.46 mg/L
[2]; leucine 0.5 g/L added in fermentation medium
  Content of ergothioneine in fermentation broth: 125.5 ± 1.36 mg/L
